Measured values: paper PMC3985299, “Single Ascending Dose Safety and Pharmacokinetics of CDRI-97/78: First-in-Human Study of a Novel Antimalarial Drug” (Malaria Research and Treatment, 2014)
“And” between values parts separate entries of the source, which are not always exact repeats. Identical values can stand only once. Like-named read-outs stand apart in the source and are kept apart here.

How the values were obtained:
[1] = Single oral dose (200 mg) pharmacokinetic study, plasma LC-MS/MS, noncompartmental analysis; assay type: in vivo, human
Experimental: For pharmacokinetic (PK) study, eligible participants were admitted and housed in the clinical pharmacology unit an evening prior to the PK study. A standard dinner was served and a fasting condition for at least 10 hrs prior to dosing and 4 hrs after dosing was ensured. A peripheral forearm vein was cannulated for sampling for the PK analysis. 200 mg of the study drug was administered with 300 mL of water. The time of actual dose administration to the nearest minute was recorded. 2.5 mL of blood was collected from the indwelling cannula at 0 (before dose), 0.25, 0.5, 0.75, 1, 1.5, 2, 4, 6, 8, 12, 18, 24, 48, 72, 96, 120, and 144 hrs (after dose). 10 mL of additional blood was collected at 0 (before dose) and 24 hr (after dose) for laboratory parameters for safety assessment and PK control sample. A time window of ±2 minutes was permitted for collecting the post dose samples from the scheduled time for PK analysis. Plasma was separated from blood sample intended for PK analysis, within 1 hour of blood sampling, by centrifugation at 2000 rpm for 10 min at 4°C. Samples were stored at −80°C pending transportation. Heparinised blood samples were transported to the laboratory within 7 days of collection. Quantitative analyses of clinical phase ascending dose and single dose PKs samples were done at GLP lab of Pharmacokinetics and Metabolism Division, CDRI, Lucknow, India. α-Arteether was used as an internal standard and all the analyses were performed as per the published method by Singh et al. 2009 [19]. Acceptance criteria for analytical runs were fixed as per internationally approved guidelines. Data acquisition and quantitation were performed using analyst software version 1.4 (Applied Biosystems, MDS SCIEX Toronto, Canada). PK parameters were estimated by using WinNonlin software (Version 1.5, Pharsight Corporation, Mountain View, CA). Oral data were best fitted in noncompartmental model. The individual plasma concentration-time profiles were subjected to noncompartmental analysis to determine various PK parameters. The PK parameters included the terminal elimination half-life (T 1/2), maximum plasma concentration (C max), time to reach maximum plasma concentration (T max), area under the curve (AUC0–∞), and mean residence time (MRT).

[2] = design: method as in printed; conditions: background statement, ref not given; cited from earlier work
[3] = 97/63 after oral 97/78 200 mg single dose, Mean ± SEM, N = 16
[4] = 97/63 in plasma after oral 97/78 200 mg single dose, individual volunteers 1-16
[5] = human, plasma, po, 200 mg, 97/63 after oral 97/78 200 mg single dose, Mean ± SEM, N = 16

Compound: C=C(c1ccc(OC(C)(C)CO)cc1)C1COC2(OO1)C1CC3CC(C1)CC2C3 (stereo not drawn) [97/63]
- AUC0−∞ [1, 3]: 878.74 ± 133.15 ng·h/mL
- MRT [1, 3]: 13.77 ± 2.05 h
- AUC0−∞ [1, 4]: 788.7 ng·h/mL and 1898.9 ng·h/mL and 935 ng·h/mL and 356.1 ng·h/mL and 583.6 ng·h/mL and 696.8 ng·h/mL and 833.1 ng·h/mL and 984.1 ng·h/mL and 104.8 ng·h/mL and 1644 ng·h/mL and 602.6 ng·h/mL and 785 ng·h/mL and 1522.6 ng·h/mL and 207.9 ng·h/mL and 1604.9 ng·h/mL and 511.7 ng·h/mL
- C max [1, 4]: 172 ng/mL and 295 ng/mL and 47.4 ng/mL and 50.4 ng/mL and 65.4 ng/mL and 105 ng/mL and 55 ng/mL and 123 ng/mL and 20.1 ng/mL and 373 ng/mL and 187 ng/mL and 149 ng/mL and 355 ng/mL and 42.6 ng/mL and 202 ng/mL and 60.9 ng/mL
- MRT [1, 4]: 12.57 h and 9.76 h and 30.72 h and 14.53 h and 11.26 h and 18.37 h and 32.20 h and 18.52 h and 5.72 h and 13.7 h and 3.53 h and 5.38 h and 14.25 h and 6.42 h and 14.13 h and 9.28 h
- T 1/2 [1, 4]: 13.89 h and 11.63 h and 24.26 h and 14.50 h and 10.10 h and 17.73 h and 24.51 h and 18.90 h and 2.17 h and 4.78 h and 2.20 h and 3.88 h and 21.27 h and 3.00 h and 8.94 h and 7.80 h
- T max [1, 4]: 1.5 h (5×) and 2 h (6×) and 4 h (4×) and 1 h
- First time at which quantified in plasma ([1]; after oral 97/78 200 mg): 0.5 h
- Last time at which quantified in plasma ([1]; after oral 97/78 200 mg, two volunteers up to 72 h): up to 48 h
- Cmax [1, 5]: 144 ± 28.3 ng/mL
- Tmax [1, 5]: 2.28 ± 0.27 h
- AUC(0-inf) ([1]; male, human, plasma, po, 200 mg, 97/63 after oral 97/78 200 mg single dose, Mean ± SEM, N = 16): 845 ± 143 ng·h/mL
- MRT ([1]; male, human, plasma, po, 200 mg, 97/63 after oral 97/78 200 mg single dose, Mean ± SEM, N = 16, read-out: MRT): 9.73 ± 1.06 h
- Cmax ([1]; male, human, plasma, po, 200 mg, 97/63 after oral 97/78 200 mg, mean, as given in text without unit): 144 ± 28.3 ng/mL
- Bioavailability [2]: poor
